Common to all, as to assay type: biochemical
The target in one assay is T1, CDK9/CyclinT (Homo sapiens, UniProt P50750).
T1 construct: host or cells: Sf9 insect cells (baculovirus)
As to the kind of experiment: ADP-Glo kinase inhibition assay, CDK9/CyclinT. Particulars: percentage of maximum activity of the DMSO control, mean n = 2, 10 µM ATP, read-out: Residual activity CDK9/CyclinT; for remaining activity at 1 µM: 1 μM compound; for remaining activity at 10 µM: 10 μM compound. How it is done:
(§1) Kinase enzymatic activities were assayed in 384-well plates using the ADP-Glo^TM assay kit (Promega, Madison, WI, USA) according to the recommendations of the manufacturer. This luminescent ADP detection assay was described by Zegzouti and co-workers and provides a homogeneous and high-throughput screening method to measure kinase activity by quantifying the amount of ADP produced during a kinase reaction. Briefly, the reactions were carried out in a final volume of 6 µL for 30 min at 30 °C in an appropriate kinase buffer (10 mM MgCl2, 1 mM EGTA, 1 mM DTT, 25 mM Tris-HCl pH 7.5, 50 µg/mL heparin), with peptide or protein as substrate in the presence of 10 µM ATP. Peptide substrates were obtained from ProteoGenix (Schiltigheim, France) or Sigma for Histone H1, Poly (L-glutamic acid–L-tyrosine) sodium salt, Casein and MBP. After that, 6 µL of ADP-Glo^TM Kinase Reagent was added to stop the kinase reaction. After an incubation time of 50 min at room temperature (rt), 12 µL of Kinase Detection Reagent was added for one hour at rt. The transmitted signal was measured using the Envision (PerkinElmer, Waltham, MA, USA) microplate luminometer and expressed as Relative Light Units (RLUs). Kinase activities are expressed as percentages of remaining kinase activities detected after treatment with 1 or 10 µM of the tested compounds. The maximum kinase activity was measured in the absence of inhibitor but with an equivalent dose of DMSO (solvent of the tested compounds).
(§2) 3. Kinase inhibition assays
(§3) Kinase enzymatic activities were assayed in 384-well plates using the ADP-GloTM assay kit (Promega, Madison, WI) according to the recommendations of the manufacturer. This luminescent ADP detection assay was described by Zegzouti and co-workers and provides a homogeneous and high-throughput screening method to measure kinase activity by quantifying the amount of ADP produced during a kinase reaction. Briefly, the reactions were carried out in a final volume of 6 µl for 30 min at 30°C in appropriate kinase buffer (10 mM MgCl2, 1 mM EGTA, 1 mM DTT, 25 mM Tris-HCl pH 7.5, 50 µg/mL heparin), with peptide or protein as substrate in the presence of 10 µM ATP. Peptide substrates were obtained from ProteoGenix (Schiltigheim, France) or Sigma for Histone H1, Poly (L-glutamic acid – L-tyrosine) sodium salt, Casein and MBP. After that, 6 µL of ADP-GloTM Kinase Reagent was added to stop the kinase reaction. After an incubation time of 50 min at room temperature (rt), 12 µL of Kinase Detection Reagent was added for 1 h at rt. The transmitted signal was measured using the Envision (PerkinElmer, Waltham, MA) microplate luminometer and expressed in Relative Light Unit (RLU). Kinase activities are expressed in percentages of remaining kinase activities detected after treatment with 1 or 10 µM of the tested compounds. The maximal kinase activity is measured in the absence of inhibitor but with an equivalent dose of DMSO (solvent of the tested compounds).
(§4) Table. Human protein kinases tested in the panel: CDK9, HASPIN, PIM1, GSK3b, CK1ε, JAK3, CLK1 […]
Protein Kinase Enzyme Description Substrate1
(Family) (Working concentration)
CDK9/CyclinT Human, recombinant, expressed by Peptide:
(CMGC) baculovirus in Sf9 insect cells […]
CLK1 Human, recombinant, expressed by Peptide: […]
(CMGC) baculovirus in Sf9 insect cells (57.3µM)
DYRK1A Human, recombinant, expressed by Peptide: […]
(CMGC) baculovirus in Sf9 insect cells (10.7µM)
PIM1 Human proto-oncogene, recombinant, Peptide: […]
(CAMK) expressed in bacteria (630 µM)
GSK3 Human, recombinant, expressed by Peptide:
(CMGC) baculovirus in Sf9 insect cells […]pEDEEE 3
HASPIN Human, kinase domain, amino acids 470 to Histone H3 peptide (1-21):
(Other) 798, recombinant, expressed in bacteria […] (8µM)
CK1ε Human, recombinant, expressed by Peptide: […]pAYSITA 2
(CK1) baculovirus in Sf9 insect cells (170µM)
JAK3 Human, recombinant, expressed by Peptide: […]
(TK) baculovirus in Sf9 insect cells (94µM) […]
(In ADP-Glo the light output rises with the ADP produced.)

For another assay, the target named is T2, DYRK1A (Homo sapiens, UniProt Q13627).
T2 construct: host or cells: Sf9 insect cells (baculovirus)
As to the kind of experiment: ADP-Glo kinase inhibition assay, DYRK1A. The note with it: percentage of maximum activity of the DMSO control, mean n = 2, 10 µM ATP, read-out: Residual activity DYRK1A; for remaining activity at 1 µM: 1 μM compound; for remaining activity at 10 µM: 10 μM compound. How it is done:
as §1, §2, §3, §4
(§5) 1 Peptide substrates were obtained from ProteoGenix (Schiltigheim, France) or Sigma for Histone H1, Poly (L-glutamic acid – L-tyrosine) sodium salt, Casein and MBP; 2 “Sp” stands for phosphorylated serine.
(§6) Controls inhibitors: To validate each kinase assay, the following model inhibitors were used under the same conditions than the tested compounds: Staurosporine from Streptomyces sp.

A further assay deals with T3, CK-1ε (Homo sapiens, UniProt P49674).
T3 construct: host or cells: Sf9 insect cells (baculovirus)
Kind of assay: ADP-Glo kinase inhibition assay, CK-1ε. Particulars: percentage of maximum activity of the DMSO control, mean n = 2, 10 µM ATP, read-out: Residual activity CK-1ε; for remaining activity at 1 µM: 1 μM compound; for remaining activity at 10 µM: 10 μM compound. The procedure: as §1, §2, §3, §4, §5, §6

Another assay concerns the target T4, CLK1 (Homo sapiens, UniProt P49759).
T4 construct: host or cells: Sf9 insect cells (baculovirus)
Kind of assay: ADP-Glo kinase inhibition assay, CLK1. Particulars: percentage of maximum activity of the DMSO control, mean n = 2, 10 µM ATP, read-out: Residual activity CLK1; for remaining activity at 1 µM: 1 μM compound; for remaining activity at 10 µM: 10 μM compound. The procedure: as §1, §2, §3, §4, §5, §6

T3 sequence (P49674 whole entry): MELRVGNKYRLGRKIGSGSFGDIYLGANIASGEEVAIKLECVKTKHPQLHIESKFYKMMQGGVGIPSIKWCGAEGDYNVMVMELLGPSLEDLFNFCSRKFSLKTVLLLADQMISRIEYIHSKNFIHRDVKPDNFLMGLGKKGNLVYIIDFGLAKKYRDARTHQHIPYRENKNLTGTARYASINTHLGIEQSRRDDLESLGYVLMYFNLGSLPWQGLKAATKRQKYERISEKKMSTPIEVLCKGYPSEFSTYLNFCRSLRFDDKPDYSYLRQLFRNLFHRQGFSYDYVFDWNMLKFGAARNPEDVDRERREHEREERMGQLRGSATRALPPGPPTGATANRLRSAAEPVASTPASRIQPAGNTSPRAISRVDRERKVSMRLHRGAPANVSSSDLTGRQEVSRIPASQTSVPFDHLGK
T1 sequence (P50750 whole entry): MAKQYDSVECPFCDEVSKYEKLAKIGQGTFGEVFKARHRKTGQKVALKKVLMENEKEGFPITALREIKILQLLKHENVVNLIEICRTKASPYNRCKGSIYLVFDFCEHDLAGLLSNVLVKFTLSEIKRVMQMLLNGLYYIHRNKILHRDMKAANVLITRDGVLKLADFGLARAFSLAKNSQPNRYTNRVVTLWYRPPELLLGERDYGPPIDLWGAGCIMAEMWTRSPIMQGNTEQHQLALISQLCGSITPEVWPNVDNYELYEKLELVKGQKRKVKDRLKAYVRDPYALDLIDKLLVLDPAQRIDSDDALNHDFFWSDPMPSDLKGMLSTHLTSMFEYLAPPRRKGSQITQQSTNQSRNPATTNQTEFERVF
T1 sequence (O60563 whole entry partner): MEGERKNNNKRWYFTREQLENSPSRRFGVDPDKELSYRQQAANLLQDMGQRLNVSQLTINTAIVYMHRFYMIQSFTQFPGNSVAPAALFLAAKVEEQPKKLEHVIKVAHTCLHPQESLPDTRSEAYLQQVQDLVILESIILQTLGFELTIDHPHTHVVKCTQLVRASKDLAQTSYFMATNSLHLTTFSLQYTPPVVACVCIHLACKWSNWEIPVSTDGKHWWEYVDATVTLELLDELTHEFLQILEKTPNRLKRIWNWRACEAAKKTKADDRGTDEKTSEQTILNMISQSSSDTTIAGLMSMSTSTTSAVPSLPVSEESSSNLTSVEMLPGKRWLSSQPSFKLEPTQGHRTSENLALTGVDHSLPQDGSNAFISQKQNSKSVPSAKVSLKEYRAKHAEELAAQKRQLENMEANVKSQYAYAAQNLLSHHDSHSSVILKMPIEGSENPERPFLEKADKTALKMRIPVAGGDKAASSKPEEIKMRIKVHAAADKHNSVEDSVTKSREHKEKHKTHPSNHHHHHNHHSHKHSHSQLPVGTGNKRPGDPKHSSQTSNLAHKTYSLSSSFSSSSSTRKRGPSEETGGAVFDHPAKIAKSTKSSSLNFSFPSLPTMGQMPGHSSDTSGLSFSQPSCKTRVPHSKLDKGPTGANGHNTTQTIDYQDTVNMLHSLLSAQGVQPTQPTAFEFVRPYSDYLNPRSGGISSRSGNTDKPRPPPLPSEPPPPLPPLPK
T4 sequence (P49759 whole entry): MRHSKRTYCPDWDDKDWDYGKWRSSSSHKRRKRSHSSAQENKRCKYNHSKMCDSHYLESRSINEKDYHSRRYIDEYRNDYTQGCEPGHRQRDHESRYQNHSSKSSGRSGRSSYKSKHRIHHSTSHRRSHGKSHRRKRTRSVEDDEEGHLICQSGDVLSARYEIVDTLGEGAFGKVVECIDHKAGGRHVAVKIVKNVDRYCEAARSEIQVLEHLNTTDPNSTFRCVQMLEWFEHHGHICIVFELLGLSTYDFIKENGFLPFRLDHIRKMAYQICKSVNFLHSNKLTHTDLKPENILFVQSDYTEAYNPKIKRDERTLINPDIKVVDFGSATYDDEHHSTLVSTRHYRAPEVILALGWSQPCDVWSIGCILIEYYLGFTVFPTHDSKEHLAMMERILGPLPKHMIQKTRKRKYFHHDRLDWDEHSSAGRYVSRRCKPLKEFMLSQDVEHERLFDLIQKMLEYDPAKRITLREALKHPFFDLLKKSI

As for `COC(=N)c1nc2cc3c(=O)n(Cc4ccccc4)cnc3cc2s1` [Compound 6a, Methyl 7-benzyl-8-oxo-7,8-dihydrothiazolo[4,5-g]quinazoline-2-carbimidate], the remaining activity at 1 µM on CDK9/CyclinT was found to be 103%; at DYRK1A, 100%; on CK-1ε it was 100%; on CLK1 it was 97%. In addition, the remaining activity at 10 µM at CDK9/CyclinT is 101%; on DYRK1A, 103%; on CK-1ε it was 69%; at CLK1, 96%.

As to `COC(=N)c1nc2cc3ncn(Cc4ccccc4)c(=O)c3cc2s1` [Compound 6b, Methyl 7-benzyl-8-oxo-7,8-dihydrothiazolo[5,4-g]quinazoline-2-carbimidate], the remaining activity at 1 µM at CDK9/CyclinT was 107%; at DYRK1A, 103%; at CK-1ε, 111%; at CLK1 it was 100%. Also, the remaining activity at 10 µM on CDK9/CyclinT amounted to 104%; on DYRK1A, 109%; at CK-1ε, 103%; at CLK1, 102%.

`COC(=N)c1nc2c(ccc3c(=O)n(Cc4ccccc4)cnc32)s1` [Compound 6c, Methyl 7-benzyl-6-oxo-6,7-dihydrothiazolo[5,4-h]quinazoline-2-carbimidate]: the remaining activity at 1 µM amounted to 105% on CDK9/CyclinT, 100% on DYRK1A, 112% on CK-1ε and 95% at CLK1. Also, the remaining activity at 10 µM on CDK9/CyclinT came to 101%; at DYRK1A, 68%; at CK-1ε it was 87%; at CLK1, 84%.

Consider `COC(=N)c1nc2ccc3c(=O)n(Cc4ccccc4)cnc3c2s1` [Compound 6d, Methyl 7-benzyl-6-oxo-6,7-dihydrothiazolo[4,5-h]quinazoline-2-carbimidate], for which the remaining activity at 1 µM worked out at 106% at CDK9/CyclinT, 83% on DYRK1A, 92% at CK-1ε and 89% at CLK1. The remaining activity at 10 µM came out at 94% on CDK9/CyclinT, 63% on DYRK1A, 98% on CK-1ε and 73% at CLK1.

On to `COC(=N)c1nc2cc3c(Nc4ccc(OC)cc4F)ncnc3cc2s1` [Compound 15a, Methyl 8-[(2-fluoro-4-methoxyphenyl)amino]thiazolo[4,5-g]quinazoline-2-carbimidate], for which the remaining activity at 1 µM at CDK9/CyclinT was found to be 101%; on DYRK1A it was 72%; at CK-1ε, 95%; on CLK1, 89%. In addition, the remaining activity at 10 µM came out at 100% on CDK9/CyclinT, 27% at DYRK1A, 72% on CK-1ε and 52% on CLK1.

On to `COC(=N)c1nc2cc3ncnc(Nc4ccc(OC)cc4F)c3cc2s1` [Compound 15b, Methyl 8-[(2-fluoro-4-methoxyphenyl)amino]thiazolo[5,4-g]quinazoline-2-carbimidate], for which the remaining activity at 1 µM worked out at 98% on CDK9/CyclinT, 95% on DYRK1A, 98% at CK-1ε and 102% at CLK1. The remaining activity at 10 µM is 110% at CDK9/CyclinT, 101% on DYRK1A, 108% at CK-1ε and 105% on CLK1.

Regarding `COC(=N)c1nc2ccc3ncn(Cc4ccccc4)c(=O)c3c2s1` [Compound I, methyl 8-benzyl-9-oxo-8,9-dihydrothiazolo[5,4-f]quinazoline-2-carbimidate, reference compound], the remaining activity at 1 µM was 91% at CDK9/CyclinT, 62% at DYRK1A, 92% at CK-1ε and 75% on CLK1. Also, the remaining activity at 10 µM was determined as 41% at CDK9/CyclinT, 21% at DYRK1A, 70% at CK-1ε and 27% on CLK1.

As for `COC(=N)c1nc2ccc3ncnc(Nc4ccc(OC)cc4F)c3c2s1` [Compound II, methyl 9-[(2-fluoro-4-methoxyphenyl)amino]thiazolo[5,4-f]quinazoline-2-carbimidate, reference compound], on CDK9/CyclinT, the remaining activity at 1 µM worked out at 86% and the remaining activity at 10 µM is 59%.

For the origin of these results see paper PMC11597202, “Novel Thiazole-Fused [4,5-g] or [5,4-g]Quinazolin-8-ones and Their Quinazoline Analogues: Synthesis and Biological Evaluation” (Pharmaceuticals, 2024).
